Assay results: publication PMC3058569 (Chemical biology & drug design, 2010)
In brackets after ≈: the same amount, converted by molar mass. Several values for one entry are separate records, joined by “and”; a condition that tells them apart may be missing. Equal values may be shown once.

Assays:
[1] = system: L. donovani promastigotes; assay: Antileishmanial activity, Alamar Blue assay; format: cell-based, Leishmania donovani; details: for Antileishmanial L. donovani IC50 / Antileishmanial L. donovani IC90: promastigotes; for Antileishmanial L. donovani IC90: 90% inhibition of leishmanial growth; for IC50 / IC90: Leishmania donovani; for IC50: read-out: Antileishmanial L. donovani IC50; for IC90: read-out: Antileishmanial L. donovani IC90
[2] = system: Staphylococcus aureus; assay: Antibacterial susceptibility testing, modified CLSI method; format: cell-based; details: for IC50 Antibacterial S. aureus: 50% inhibition of bacterial growth; for IC50 against S. aureus and methicillin resistant S. aureus: range over both compounds and both strains (abstract)
[3] = system: Mycobacterium intracellulare; assay: Susceptibility by modified Alamar Blue procedure; format: cell-based
[4] = system: methicillin resistant S. aureus (MRS); assay: Antibacterial susceptibility testing, modified CLSI method; format: cell-based, Staphylococcus aureus; details: for IC50 Antibacterial MRS: 50% inhibition of bacterial growth
[5] = system: BSL-1 and 2 model organisms (fungi, bacteria, P. falciparum, L. donovani); assay: Overall in vitro antimicrobial and antiprotozoal screen; format: cell-based; details: for Activity against all other test organisms: fungi and bacteria other than S. aureus and MRS; for Antimicrobial or antiprotozoal activity (overall): all test organisms
[6] = system: P. falciparum chloroquine sensitive (D6) clone; assay: In vitro antimalarial activity, plasmodial LDH activity; format: cell-based, Plasmodium falciparum; details: for IC50: Plasmodium falciparum, D6, read-out: Antimalarial P. falciparum D6 Clone IC50
[7] = system: P. falciparum chloroquine resistant (W2) clone; assay: microbe, parasite or virus in culture; format: cell-based, Plasmodium falciparum; details: for IC50: Plasmodium falciparum, W2, read-out: Antimalarial P. falciparum W2 Clone IC50
[8] = system: Cryptococcus neoformans; assay: Antifungal susceptibility testing, modified CLSI method; format: cell-based
[9] = system: A. fumigatus; assay: as above; format: cell-based; details: Aspergillus fumigatus
[10] = system: C. glabrata; assay: as above; format: cell-based, Candida glabrata; details: 50% inhibition of fungal growth
[11] = lowest concentration that allows no detectable growth

SMILES: ON=Cc1cccc[n+]1Cc1csc2ccccc12.[Cl-] [Compound 24, 1-(Benzothiophene-3-yl)-methyl-2-hydroxyiminomethylpyridinium chloride]
- Antileishmanial L. donovani IC50 [1]: 18 µg/mL
- Antileishmanial L. donovani IC90 [1]: 40 µg/mL
- IC50 Antibacterial S. aureus [2]: 12.2 µg/mL and 12.23 µg/mL
- MIC Antibacterial S. aureus [2, 11]: 20 µg/mL
- IC50 against S. aureus and methicillin resistant S. aureus [2]: 12.2 to 17.7 µg/mL
- IC50 Antibacterial M. intracellulare ([3]; 50% inhibition of bacterial growth): >20 µg/mL
- IC50 Antibacterial MRS [4]: 17.7 µg/mL and 17.72 µg/mL
- MIC Antibacterial MRS [4, 11]: 20 µg/mL
- Activity against all other test organisms [5]: inactive

SMILES: N=C(N)c1ccc(OCCCCCOc2ccc(C(=N)N)cc2)cc1 [Pentamidine, reference compound]
- IC50 [1]: 1.2 µg/mL (≈ 3.52 µM)
- IC90 [1]: 5 µg/mL (≈ 14.7 µM)

SMILES: CCN(CC)CCCC(C)Nc1ccnc2cc(Cl)ccc12 (stereo not shown) [Chloroquine]
- IC50 [6]: 0.015 µg/mL (≈ 0.0469 µM)
- IC50 [7]: 0.12 µg/mL (≈ 0.375 µM)

SMILES: ON=Cc1cc[n+](CCC[n+]2ccc(/C=N/O)cc2)cc1 [Compound 42, trimedoxime, reference compound]
- Antimicrobial or antiprotozoal activity (overall) [5]: completely devoid of any antimicrobial or antiprotozoal activities

SMILES: O/N=C/c1cc[n+](COC[n+]2ccc(/C=N/O)cc2)cc1 [Compound 37, obidoxime, reference compound]
- Antimicrobial or antiprotozoal activity (overall) [5]: completely devoid of any antimicrobial or antiprotozoal activities

SMILES: C[C@@H]1[C@H](O)[C@@H](C)/C=C/C=C/C=C/C=C/C=C/C=C/C=C/[C@H](O[C@@H]2O[C@H](C)[C@@H](O)[C@H](N)[C@@H]2O)C[C@@H]2O[C@](O)(C[C@@H](O)C[C@@H](O)[C@H](O)CC[C@@H](O)C[C@@H](O)CC(=O)O[C@H]1C)C[C@H](O)[C@H]2C(=O)O [Amphotericin B]
- IC50 [1]: 0.2 µg/mL (≈ 0.216 µM)
- IC90 [1]: 0.4 µg/mL (≈ 0.433 µM)
- IC50 Antifungal C. neoformans ([8]; 50% inhibition of fungal growth): 1.28 µg/mL (≈ 1.39 µM)
- MIC ([8]; Cryptococcus neoformans, read-out: MIC Antifungal C. neoformans): 2.5 µg/mL (≈ 2.71 µM)
- IC50 ([9]; read-out: IC50 Antifungal A. fumigatus): 0.98 µg/mL (≈ 1.06 µM)
- MIC ([9]; read-out: MIC Antifungal A. fumigatus): 2.5 µg/mL (≈ 2.71 µM)

SMILES: O=C(O)c1cn(C2CC2)c2cc(N3CCNCC3)c(F)cc2c1=O [Ciprofloxacin]
- IC50 ([3]; Mycobacterium intracellulare, read-out: IC50 Antibacterial M. intracellulare): 0.39 µg/mL (≈ 1.18 µM)
- MIC ([3]; Mycobacterium intracellulare, read-out: MIC Antibacterial M. intracellulare): 0.5 µg/mL (≈ 1.51 µM)

SMILES: C[C@@H]1CC[C@H]2[C@@H](C)C(=O)O[C@@H]3O[C@@]4(C)CC[C@@H]1[C@]32OO4 [Artemisinin]
- IC50 [6]: 0.01 µg/mL (≈ 0.0354 µM)
- IC50 [7]: 0.0065 µg/mL (≈ 0.023 µM)

SMILES: NC(=O)c1cc[n+](CCCBr)cc1.[Br-] [Compound 17]
- Antimalarial P. falciparum D6 Clone IC50 ([6]; chloroquine sensitive clone): 3.7 µg/mL
- Antimalarial P. falciparum W2 Clone IC50 ([7]; chloroquine resistant clone): 4.0 µg/mL

SMILES: ON=Cc1cccc[n+]1Cc1ccc(Br)s1.[Cl-] [Compound 21]
- Antileishmanial L. donovani IC50 [1]: 19 µg/mL
- Antileishmanial L. donovani IC90 [1]: 40 µg/mL
- IC50 Antifungal C. glabrata [10]: >20 µg/mL
- IC50 Antibacterial S. aureus [2]: 15.3 µg/mL and 15.27 µg/mL
- IC50 against S. aureus and methicillin resistant S. aureus [2]: 12.2 to 17.7 µg/mL
- IC50 Antibacterial MRS [4]: 14.2 µg/mL and 14.19 µg/mL
- Activity against all other test organisms [5]: inactive
